The results in this text go back to patent US20250163104A1, “MACROCYCLIC IMMUNOMODULATORS” (priority 2021, published 2025).

SMILES strings stand for the structures. Where two headings read alike, the source gives them in different places. *1 amine or outer side, *2 acyl side, *3 side chain or, on linkers, in order; H or OH if unused. Where a SMILES comes first, the peptide text is derived from it. Bridges are numbered along the chain shown (N, C = ends). [ ]: non-standard residue; d: D form. The star is where a group is joined. Phe(3-CF3) = N[C@@H](Cc1cccc(C(F)(F)F)c1)C(=O)O; Phe(4-COOH) = N[C@@H](Cc1ccc(C(=O)O)cc1)C(=O)O; Bip = N[C@@H](Cc1ccc(-c2ccccc2)cc1)C(=O)O; Phe(3-Me) = Cc1cccc(C[C@H](N)C(=O)O)c1; βAsp = O=C(O)[C@H](CC(=O)[*:2])N[*:1]; Benzoyl(4-F) = O=C(c1ccc(F)cc1)*; 4Pal = N[C@@H](Cc1ccncc1)C(=O)O; 2Thi = N[C@@H](Cc1cccs1)C(=O)O; Cha = N[C@@H](CC1CCCCC1)C(=O)O; Cit = NC(=O)NCCC[C@H](N)C(=O)O; Carboxymethyl = O=C(O)C*; Nle = CCCC[C@H](N)C(=O)O; Orn = NCCC[C@H](N)C(=O)O; Pra = C#CC[C@H](N)C(=O)O; Dab = NCC[C@H](N)C(=O)O; Dap = NC[C@H](N)C(=O)O; Propargyl = C#CC*

The target in this assay is T1, human PD-1 / PD-L1-Ig binding on Jurkat cell line over-expressing human PD-1 (Jurkat-PD-1) (Homo sapiens, UniProt Q15116).
T1 construct: expressed in transfected cells; host or cells: Jurkat
Kind of assay: Jurkat-PD-1 Cell Binding High-Content Screening Assay (CBA). The assay is classed as cell-based. Particulars: PE-labeled PD-L1-Ig 20 nM final. A digest of the protocol:
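PE-PD-L1-Ig 20 nM final; cells in DMEM/10% FCS; cpd pre-incubation 2 h, 37° C; ligand 1 h; PFA fix + Hoechst 33342; high-content imaging read-out.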

The mark [1] stands for this setting: Jurkat-PD-1 cells, read-out: Jurkat HPD1_PDL1 IC50.

T1 sequence (Q15116 25-288): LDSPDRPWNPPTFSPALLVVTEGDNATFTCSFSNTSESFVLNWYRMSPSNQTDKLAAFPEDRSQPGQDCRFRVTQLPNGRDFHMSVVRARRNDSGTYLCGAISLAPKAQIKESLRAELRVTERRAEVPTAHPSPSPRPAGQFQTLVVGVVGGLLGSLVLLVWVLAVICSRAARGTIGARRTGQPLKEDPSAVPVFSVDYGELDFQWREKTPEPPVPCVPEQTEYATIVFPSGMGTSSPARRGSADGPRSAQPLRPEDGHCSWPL

Broadly, the IC50 is the concentration that inhibits the measured activity by half. For the compound `CC(C)C[C@@H]1NC(=O)[C@H](CCCCN)NC(=O)[C@@H](CC(C)C)NC(=O)[C@H](CCCN)NC(=O)[C@H](Cc2cnc[nH]2)NC(=O)[C@H](Cc2ccc(-c3ccccc3)cc2)NC(=O)[C@H](C(C)C)NC(=O)[C@H](Cc2c[nH]c3ccccc23)NC(=O)[C@H](CC(=O)O)NC(=O)[C@H](Cc2ccc(O)cc2)NC(=O)[C@H](CC(N)=O)NC(=O)CSC[C@@H](C(=O)N[C@@H](C)C(N)=O)NC(=O)[C@H](CO)NC(=O)[C@H](C(C)C)NC1=O` [Compound 1134] ({CH2CO}-NYDWV[Bip]H[Orn][dL]KLVSCA-NH2; thioether N-14), the IC50 under setting [1] stood at 32.1 nM.

Turning to `C#CC[C@H](NC(=O)C[C@H](NC(=O)[C@H](CCN)NC(=O)[C@@H]1CSCC(=O)N[C@@H](Cc2ccncc2)C(=O)N[C@@H](Cc2ccc(C(=O)O)cc2)C(=O)N[C@@H](CC(=O)O)C(=O)N[C@@H](Cc2c[nH]c3ccccc23)C(=O)N[C@@H](C(C)C)C(=O)N[C@@H](Cc2ccc(-c3ccccc3)cc2)C(=O)N[C@@H]([C@@H](C)CC)C(=O)N[C@@H](CCCN)C(=O)N[C@H](CC(C)C)C(=O)N[C@@H](CCN)C(=O)N[C@@H](CC(C)C)C(=O)N[C@@H](C(C)C)C(=O)N[C@@H]([C@@H](C)O)C(=O)N1)C(=O)O)C(=O)O` [Compound 1770] ({CH2CO}-[4Pal][Phe(4-COOH)]DWV[Bip]I[Orn][dL][Dab]LVTC[Dab][βAsp][Pra]-OH; thioether N-14), the IC50 under setting [1] was 68.9 nM.

As to `CC(C)C[C@H]1NC(=O)[C@H](CCCN)NC(=O)[C@H](CCCNC(N)=O)NC(=O)[C@H](Cc2ccc(-c3ccccc3)cc2)NC(=O)[C@H](C(C)C)NC(=O)[C@H](Cc2c[nH]c3ccccc23)NC(=O)[C@H](CC(=O)O)NC(=O)[C@H](Cc2ccc(C(=O)O)cc2)NC(=O)[C@H](Cc2ccncc2)NC(=O)CSC[C@@H](C(=O)N[C@@H](C)C(N)=O)NC(=O)[C@H]([C@@H](C)O)NC(=O)[C@H](C(C)C)NC(=O)[C@H](CC2CCCCC2)NC(=O)[C@H](Cc2c[nH]cn2)NC1=O` [Compound 1598], the IC50 (Jurkat HPD1_PDL1 IC50, Jurkat-PD-1 cells) came to 9.9 nM.

For `CC(C)C[C@@H]1NC(=O)[C@H](CCN)NC(=O)[C@@H](CC(C)C)NC(=O)[C@H](CCCCN)NC(=O)[C@H](CCCNC(N)=O)NC(=O)[C@H](Cc2ccc(-c3ccccc3)cc2)NC(=O)[C@H](C(C)C)NC(=O)[C@H](Cc2c[nH]c3ccccc23)NC(=O)[C@H](CC(=O)O)NC(=O)[C@H](Cc2ccc(O)cc2)NC(=O)[C@H](CC(N)=O)NC(=O)CSC[C@@H](C(=O)NCC(N)=O)NC(=O)[C@H]([C@@H](C)O)NC(=O)[C@H](C(C)C)NC1=O` [Compound 1116] ({CH2CO}-NYDWV[Bip][Cit]K[dL][Dab]LVTCG-NH2; thioether N-14), the IC50 under setting [1] came out at 38.5 nM.

As to `Cc1cccc(C[C@@H]2NC(=O)[C@H](CC(=O)O)NC(=O)[C@H](Cc3ccc(OCC(=O)O)cc3)NC(=O)[C@H](CCCNC(=N)N)NC(=O)CSC[C@@H](C(N)=O)NC(=O)[C@H]([C@@H](C)O)NC(=O)[C@H](C(C)C)NC(=O)[C@H](CC3CCCCC3)NC(=O)[C@H](CCN)NC(=O)[C@@H](CC(C)C)NC(=O)[C@H](CCCN)NC(=O)[C@H](CCCNC(=O)c3ccc(F)cc3)NC(=O)[C@H](Cc3ccc(-c4ccccc4)cc3)NC(=O)[C@H](Cc3ccc(O)cc3)NC2=O)c1` [Compound 2052] ({CH2CO}-RY(Carboxymethyl)D[Phe(3-Me)]Y[Bip][Orn](Benzoyl(4-F))[Orn][dL][Dab][Cha]VTC-NH2; thioether N-14), the IC50 under setting [1] was 145 nM.

Take `Cc1cccc(C[C@@H]2NC(=O)[C@H](CC(=O)O)NC(=O)[C@H](Cc3ccc(OCC(=O)O)cc3)NC(=O)[C@H](CN)NC(=O)CSC[C@@H](C(=O)N[C@@H](C)C(N)=O)NC(=O)[C@H]([C@@H](C)O)NC(=O)[C@H](C(C)C)NC(=O)[C@H](CC3CCCCC3)NC(=O)[C@H](Cc3cnc[nH]3)NC(=O)[C@@H](CC(C)C)NC(=O)[C@H](CCCN)NC(=O)[C@H](C(C)C)NC(=O)[C@H](Cc3ccc(-c4ccccc4)cc3)NC(=O)[C@H](C(C)C)NC2=O)c1` [Compound 1579]: under setting [1], the IC50 was 17.8 nM.

Turning to `CCCC[C@@H]1NC(=O)[C@H](Cc2c[nH]c3ccccc23)NC(=O)[C@H](CC(=O)O)NC(=O)[C@H](Cc2ccc(OCC(=O)O)cc2)NC(=O)[C@H](CN)NC(=O)CSC[C@@H](C(=O)N[C@@H](C)C(N)=O)NC(=O)[C@H]([C@@H](C)O)NC(=O)[C@H](C(C)C)NC(=O)[C@H](CC2CCCCC2)NC(=O)[C@H](CCN)NC(=O)[C@@H](CC(C)C)NC(=O)[C@H](CCCN)NC(=O)[C@H](C(C)C)NC(=O)[C@H](Cc2ccc(-c3ccccc3)cc2)NC1=O` [Compound 1734] ({CH2CO}-[Dap]Y(Carboxymethyl)DW[Nle][Bip]V[Orn][dL][Dab][Cha]VTCA-NH2; thioether N-14), the IC50 under setting [1] was determined as 10.8 nM.

With `CC(C)C[C@H]1NC(=O)[C@H](CCCN)NC(=O)[C@H](CCC(=O)O)NC(=O)[C@H](Cc2ccc(-c3ccccc3)cc2)NC(=O)[C@H](C(C)C)NC(=O)[C@H](Cc2cccs2)NC(=O)[C@H](CC(=O)O)NC(=O)[C@H](Cc2cccs2)NC(=O)[C@H](Cc2ccc(OCC(=O)O)cc2)NC(=O)CSC[C@@H](C(=O)N[C@@H](C)C(N)=O)NC(=O)[C@H]([C@@H](C)O)NC(=O)[C@H](C(C)C)NC(=O)[C@H](CC2CCCCC2)NC(=O)[C@H](CCN)NC1=O` [Compound 2206] ({CH2CO}-Y(Carboxymethyl)[2Thi]D[2Thi]V[Bip]E[Orn][dL][Dab][Cha]VTCA-NH2; thioether N-14), the half-maximal inhibitory concentration (IC50) under setting [1] was 14.6 nM.

As for `CC(C)C[C@H]1NC(=O)[C@H](CCCN)NC(=O)[C@H](C(C)C)NC(=O)[C@H](Cc2ccc(-c3ccccc3)cc2)NC(=O)[C@H](C(C)C)NC(=O)[C@H](Cc2cccc(Cl)c2)NC(=O)[C@H](CC(=O)O)NC(=O)[C@H](Cc2ccc(OCC(=O)O)cc2)NC(=O)[C@H](Cc2ccc(OCC(=O)O)cc2)NC(=O)CSC[C@@H](C(=O)N[C@@H](C)C(N)=O)NC(=O)[C@H]([C@@H](C)O)NC(=O)[C@H](C(C)C)NC(=O)[C@H](CC2CCCCC2)NC(=O)[C@H](CCN)NC1=O` [Compound 1573], the IC50 under setting [1] was found to be 18.1 nM.

Regarding `C#CCOc1ccc(C[C@@H]2NC(=O)[C@H](Cc3cccc(C)c3)NC(=O)[C@H](CC(=O)O)NC(=O)[C@H](Cc3ccc(OCC(=O)O)cc3)NC(=O)[C@H](CCCNC(=N)N)NC(=O)CSC[C@@H](C(=O)N[C@@H](CCN)C(N)=O)NC(=O)[C@H](CCC(=O)O)NC(=O)[C@H](C(C)C)NC(=O)[C@H](CC3CCCCC3)NC(=O)[C@H](CCN)NC(=O)[C@@H](CC(C)C)NC(=O)[C@H](CCCN)NC(=O)[C@H](Cc3ccc(OCC(=O)O)cc3)NC(=O)[C@H](Cc3ccc(-c4ccccc4)cc3)NC2=O)cc1` [Compound 1818] ({CH2CO}-RY(Carboxymethyl)D[Phe(3-Me)]Y(Propargyl)[Bip]Y(Carboxymethyl)[Orn][dL][Dab][Cha]VEC[Dab]-NH2; thioether N-14), the IC50 under setting [1] was determined as 2.3 nM.

For the compound `CC(C)C[C@H]1NC(=O)[C@H](CCCN)NC(=O)[C@H](CCC(=O)O)NC(=O)[C@H](Cc2ccc(-c3ccccc3)cc2)NC(=O)[C@H](C(C)C)NC(=O)[C@H](Cc2cccc(C(F)(F)F)c2)NC(=O)[C@H](CC(=O)O)NC(=O)[C@H](Cc2ccncc2)NC(=O)[C@H](CN)NC(=O)CSC[C@@H](C(=O)N[C@@H](C)C(N)=O)NC(=O)[C@H]([C@@H](C)O)NC(=O)[C@H](C(C)C)NC(=O)[C@H](CC2CCCCC2)NC(=O)[C@H](CCN)NC1=O` [Compound 1459] ({CH2CO}-[Dap][4Pal]D[Phe(3-CF3)]V[Bip]E[Orn][dL][Dab][Cha]VTCA-NH2; thioether N-14), the IC50 under setting [1] was 17.7 nM.

Take `CC(C)C[C@H]1NC(=O)[C@H](CCCN)NC(=O)[C@H](CCC(=O)O)NC(=O)[C@H](Cc2ccc(-c3ccccc3)cc2)NC(=O)[C@H](C(C)C)NC(=O)[C@H](Cc2c[nH]c3ccccc23)NC(=O)[C@H](CC(=O)O)NC(=O)[C@H](Cc2ccc(OCC(=O)O)cc2)NC(=O)[C@H](CN)NC(=O)CSC[C@@H](C(=O)N[C@@H](C)C(N)=O)NC(=O)[C@H]([C@@H](C)O)NC(=O)[C@H](C(C)C)NC(=O)[C@H](CC2CCCCC2)NC(=O)[C@H]([C@@H](C)O)NC1=O` [Compound 1517] ({CH2CO}-[Dap]Y(Carboxymethyl)DWV[Bip]E[Orn][dL]T[Cha]VTCA-NH2; thioether N-14): under setting [1], the IC50 was found to be 34.2 nM.

For the compound `CC(C)C[C@@H]1NC(=O)[C@H](CCN)NC(=O)[C@@H](CC(C)C)NC(=O)[C@H](CCCCN)NC(=O)[C@H](C(C)C)NC(=O)[C@H](Cc2ccc(-c3ccccc3)cc2)NC(=O)[C@H](C(C)C)NC(=O)[C@H](Cc2c[nH]c3ccccc23)NC(=O)[C@H](CC(=O)O)NC(=O)[C@H](Cc2ccc(O)cc2)NC(=O)[C@H](CC(N)=O)NC(=O)CSC[C@@H](C(=O)N[C@@H](C)C(N)=O)NC(=O)[C@H](CO)NC(=O)[C@H](C(C)C)NC1=O` [Compound 1128] ({CH2CO}-NYDWV[Bip]VK[dL][Dab]LVSCA-NH2; thioether N-14), the IC50 under setting [1] is 17.6 nM.

On to `CC(C)[C@@H]1NC(=O)[C@H](Cc2c[nH]c3ccccc23)NC(=O)[C@H](CC(=O)O)NC(=O)[C@H](Cc2ccc(C(=O)O)cc2)NC(=O)[C@H](Cc2ccc(OCC(=O)O)cc2)NC(=O)CSC[C@@H](C(=O)N[C@@H](C)C(N)=O)NC(=O)[C@H]([C@@H](C)O)NC(=O)[C@H](C(C)C)NC(=O)[C@H](CC2CCCCC2)NC(=O)[C@H](CCN)NC(=O)[C@@H](Cc2ccc(O)cc2)NC(=O)[C@H](CCCN)NC(=O)[C@H](CCC(=O)O)NC(=O)[C@H](Cc2ccc(-c3ccccc3)cc2)NC1=O` [Compound 1449] ({CH2CO}-Y(Carboxymethyl)[Phe(4-COOH)]DWV[Bip]E[Orn][dY][Dab][Cha]VTCA-NH2; thioether N-14), for which the IC50 under setting [1] came to 32.9 nM.

Regarding `CC(C)C[C@@H]1NC(=O)[C@H](CCN)NC(=O)[C@@H](CC(C)C)NC(=O)[C@H](C(C)C)NC(=O)[C@H](C(C)C)NC(=O)[C@H](Cc2ccc(-c3ccccc3)cc2)NC(=O)[C@H](C(C)C)NC(=O)[C@H](Cc2c[nH]c3ccccc23)NC(=O)[C@H](CC(=O)O)NC(=O)[C@H](Cc2ccc(O)cc2)NC(=O)[C@H](CC(N)=O)NC(=O)CSC[C@@H](C(=O)N[C@@H](C)C(N)=O)NC(=O)[C@H]([C@@H](C)O)NC(=O)[C@H](C(C)C)NC1=O` [Compound 1034] ({CH2CO}-NYDWV[Bip]VV[dL][Dab]LVTCA-NH2; thioether N-14), the IC50 under setting [1] worked out at 99 nM.
